Reference: paper PMC11760775 (bioRxiv, 2025)
“Also recorded” adds a separate entry of the source.

How the values were obtained:
mice [1] = test: Tail flick acute heat nociception assay, reversal of morphine analgesia; assay type: in vivo, mouse; conditions: morphine 20mg/kg i.p., 50°C water bath
mice [2] = test: Conditioned place aversion in morphine tolerant mice; assay type: in vivo, mouse

Structure (SMILES)	Tail flick latency (mice [1])	CPA score (Test - Pretest) (mice [2])	Time spent in antagonist-paired (withdrawal precipitation) chamber (mice [2]; after conditioning versus pre-treatment)
CN1CC[C@]23c4c5ccc(O)c4O[C@H]2[C@@H](O)C=C[C@H]3[C@H]1C5 [morphine]	significantly increased	–	–
C=CCN1CC[C@]23c4c5ccc(O)c4O[C@H]2C(=O)CC[C@@]3(O)[C@H]1C5 [naloxone]	–	avoided the treatment compartment to a greater extent	marked decrease; also recorded: significantly less time
